One data set concerns the target NS3/4A protease gt 1b (Hepatitis C virus genotype 1b, UniProt P26663). Kind of data set: HCV NS3 protease time-resolved fluorescence (TRF) assay, NS3/4A inhibitory activity (Ki), gt 1b. In kind it is biochemical. To be noted: NS3/4A enzyme. How it is done: (§1) The HCV NS3 protease inhibitory activity of the present compounds may be tested using assays known in the art. One such assay is HCV NS3 protease time-resolved fluorescence (TRF) assay as described below and in WO 2006/102087. Other examples of such assays are described in, for example, WO 2005/046712. HCV NS3 protease inhibitors, such as those described herein have a Ki less than 50 μM, such as less than 10 μM, and less than 100 nM. Ki is determined by an NS3 protease assay. The assay is performed in a final volume of 100 μl in assay buffer containing 50 mM HEPES, pH 7.5, 150 mM NaCl, 15% glycerol, 0.15% TRITON X-100, 10 mM DTT, and 0.1% PEG 8000. NS3 protease is preincubated with various concentrations of inhibitors in DMSO for 30 minutes. The reaction is initiated by adding the TRF peptide substrate (final concentration 100 nM). NS3 mediated hydrolysis of the substrate is quenched after 1 hour at room temperature with 100 μl of 500 mM MES, pH 5.5. Product fluorescence is detected using either a VICTOR V2 or FUSION fluorophotometer (PERKIN ELMER LIFE AND ANALYTICAL SCIENCES) with excitation at 340 nm and emission at 615 nm with a 400 μs delay. Testing concentrations of different enzyme forms are selected to result in a signal to background ratio (SIB) of 10-30. IC50 values are derived using a standard four-parameter fit to the data. Ki values are derived from IC50 values using the following formula, IC50=Ki(1+[S]/KM), Eqn (1), where [S] is the concentration of substrate peptide in the reaction and KM is the Michaelis constant. See Paola Gallinari et al., Modulation of Hepatitis C Virus NS3 Protease and Helicase Activities through the Interaction with NS4A, 38 BIOCHEM. 5620 (1999); Paola Gallinari et al., Multiple Enzymatic Activities Associated with Recombinant NS3 Protein of Hepatitis C Virus, 72(8) J. VIROLOGY 6758 (1998); Mariana Taliani et al., A Continuous Assay of Hepatitis C Virus Protease Based on Resonance Energy Transfer Depsipeptide Substrates, 240 ANAL. BIOCHEM. 60 (1996).
(§2) This NS3 protease assay was performed in a final volume of 100 μl assay buffer containing 50 mM HEPES, pH 7.5, 150 mM NaCl, 15% glycerol, 0.15% TRITON X-100, 10 mM DTT, and 0.1% PEG 8000. NS3/4A protease was pre-incubated with various concentrations of inhibitors in DMSO for 30 minutes. The reaction was initiated by adding the TRF peptide substrate (final concentration 100 nM). NS3 mediated hydrolysis of the substrate was quenched after 1 hour at RT with 100 μl of 500 mM MES, pH 5.5. Product fluorescence was detected using either a V1CTOR V2 or FUSION fluorophotometer (PERKIN ELMER LIFE AND ANALYTICAL SCIENCES) with excitation at 340 nm and emission at 615 nm with a 400 us delay. Testing concentrations of different enzyme forms were selected to result in a signal to background ratio (SIB) of 10-30. IC50 values were derived using a standard four-parameter fit to the data. K, values are derived from IC50 values using the following formula, IC50=Ki(1+[S]/KM), Eqn (1), where [S] is the concentration of substrate peptide in the reaction and KM is the Michaelis constant. See Paola Gallinari et al., Modulation of Hepatitis C Virus NS3 Protease and Helicase Activities through the Interaction with NS4A, 38 BIOCHEM. 5620 (1999); Paola Gallinari et al., Multiple Enzymatic Activities Associated with Recombinant NS3 Protein of Hepatitis C Virus, 72(8) J. VIROLOGY 6758 (1998); Mariana Milani et al., A Continuous Assay of Hepatitis C Virus Protease Based on Resonance Energy Transfer Depsipeptide Substrates, 240 ANAL. BIOCHEM. 60 (1996); Shi-Shan Mao et al., A time-resolved, internally quenched fluorescence assay to characterize inhibition of hepatitis C virus nonstructural protein 3-4A protease at low enzyme concentrations, 373 ANALYTICAL BIOCHEMISTRY 1 (2008). Measuring Compound Inhibitory Potency (Replicon EC50 (nM))

Data set [1] deals with NS3/4A protease gt 1b A156V (Hepatitis C virus genotype 1b, UniProt P26663, A1182V). Description: HCV NS3 protease time-resolved fluorescence (TRF) assay, NS3/4A inhibitory activity (Ki), gt 1b A156V. In kind it is biochemical. How it is done:
as §1, §2

The target in the next data set is NS3/4A protease gt 3a (Hepatitis C virus genotype 3a, UniProt Q81258). Description: HCV NS3 protease time-resolved fluorescence (TRF) assay, NS3/4A inhibitory activity (Ki), gt 3a. The format is biochemical. Particulars: NS3/4A enzyme. How it is done: as §1, §2
The next data set deals with HCV gt 1b replicon. Description: HCV replicon assay, compound inhibitory potency (Replicon EC50). In kind it is cell-based. Particulars: Hepatitis C virus, GT1B. How it is done: Measurement of inhibition by compounds was performed using the HCV replicon system. Several different replicons encoding different HCV genotypes or mutations were used. In addition, potency measurements were made using different formats of the replicon assay, including different ways of measurements and different plating formats. See Jan M. Vrolijk et al., A replicon-based bioassay for the measurement of interferons in patients with chronic hepatitis C, 110 J. VIROLOGICAL METHODS 201 (2003); Steven S. Carroll et al., Inhibition of Hepatitis C Virus RNA Replication by 2′-Modified Nucleoside Analogs, 278(14) J. BIOLOGICAL CHEMISTRY 11979 (2003). However, the underlying principles are common to all of these determinations, and are outlined below.
Stable neomycin phosphotransferase encoding replicon-harboring cell lines were used, so all cell lines were maintained under G418 selection prior to the assay. In some cases the cell lines encoded a luciferase:NEO FUSION and could be assayed either directly by determination of RNA copy number, or indirectly through measurement of the luciferase activity.
To initiate an assay, replicon cells were plated in the presence of a dilution series of test compound in the absence of G418. Typically, the assays were performed in a 96-well plate format for manual operation, or a 384-well plate in an automated assay. Replicon cells and compound were incubated for 24 to 48 hours, depending on the assay. At the end of the assay, cells are washed free of media and compound and then lysed. For direct quantitation, RNA levels were measured by 32P-probe hybridization and protection, or in a TAQMAN-based assay and normalized to cellular cyclophilin A RNA levels. In some cases, luciferase activity was measured using a conventional luciferase assay. In all cases, EC50 determinations were calculated as a percent of a DMSO control by fitting the data to a four-parameter fit function.
Background: In antiviral work, replicon cells carry a viral genome segment that copies itself.

A short description of data set [2]: Plasma and liver concentrations and pharmacokinetics (Rat PK). In kind it is in vivo. Details: Rat PK 5 mpk AUC: unit not given here. To be noted: for concentration at 4 h: 5 mg/kg, 5 mpk, liver concentration at 4 h; for Rat PK 5 mpk AUC: area under the plasma concentration/time curve. How it is done:
Test compounds were dissolved in a suitable dosing vehicle for i.v. administration (e.g., 20%:60%:20% DMSO:PEG400:H2O) or per oral administration (e.g., 10% POLYSORBATE80:90% H2O or 100% PEG400). Animals were administered (n=2 or 3) using a crossover study design for non-rodents. Plasma samples were collected at time points between 2 minutes and 24 hours, and compound levels were determined by RP-LC/MS/MS. Liver samples were collected post-mortem in rat. Liver samples were weighed, homogenized, and diluted using techniques known to those skilled in the art, and compound levels were determined by RP-LC/MS/MS.
Pharmacokinetic parameters were calculated based on non-compartmental analysis (e.g., using WATSON, WINNOLIN). Predose concentrations that were below the limit of quantitation (BLQ) were assigned a value of 0, Standard pharmacokinetic parameters CLp, Vdss, half-life (only for IV), % F, Cmax, Tmax, AUC0-last, AUC0-infinity were calculated. AUC values were calculated using linear trapezoidal method for ascending concentrations and the log trapezoidal method for descending concentrations.

The mark [3] stands for this setting: 10% fetal bovine serum, read-out: gt 1b Replicon EC50 10% FBS.
The mark [4] stands for this setting: 50% normal human serum, read-out: gt 1b Replicon EC50 50% NHS.

Read-outs that look alike come from different tables or passages of the source.

Take `C[C@@]12C[C@H]1CCCCCc1nc3ccccc3nc1O[C@@H]1C[C@H]3C(=O)N[C@]4(C(=O)NS(=O)(=O)C5CC5)C[C@H]4/C=C\CCCCC[C@H](NC(=O)O2)C(=O)N3C1` [Example 10, (3R,20R,22R,26S,32Z,34S,36R,39S)—N-(Cyclopropylsulfonyl)-22-methyl-24,38,40-trioxo-4,23-dioxa-1,6,13,25,37-pentaazaheptacyclo[24.13.1.1^3,39.0^5,14.0^7,12.0^20,22.0^34,36]hentetraconta-5,7,9,11,13,32-hexaene-36-carboxamide]: the inhibition constant (Ki) (usually the dissociation constant of the complex between target and ligand, obtained from inhibition or displacement) at NS3/4A protease gt 1b came out at 0.02 nM; in data set [1] it was 0.6 nM; on NS3/4A protease gt 3a, 0.35 nM. Further, the values for the 50% effective concentration (EC50) in the data set on HCV gt 1b replicon (setting [3]) and in the data set with HCV gt 1b replicon (setting [4]) were 1 nM and 5 nM, respectively. Besides, the concentration at 4 h in data set [2] worked out at 15 µM. Further, the “Rat PK 5 mpk AUC” value in data set [2] was found to be 0.6.

Consider `CC1(S(=O)(=O)NC(=O)[C@@]23C[C@H]2/C=C\CCCCC[C@@H]2NC(=O)O[C@@H]4CCC[C@H]4CCCCCc4nc5ccccc5nc4O[C@@H]4C[C@@H](C(=O)N3)N(C4)C2=O)CC1` [Example 7, (3R,20R,24R,28S,34Z,36S,38R,41S)—N-[(1-Methylcyclopropyl)sulfonyl]-26,40,42-trioxo-4,25-dioxa-1,6,13,27,39-pentaazaheptacyclo[26.13.1.1^3,41.0^5,14.0^7,12.0^20,24.0^36,38]tritetraconta-5,7,9,11,13,34-hexaene-38-carboxamide], for which the figures for the Ki (at NS3/4A protease gt 1b; in data set [1]; on NS3/4A protease gt 3a) were 0.02 nM, 1.2 nM and 0.72 nM, respectively. Besides, the values for the concentration for a half-maximal effect (EC50) in the data set on HCV gt 1b replicon (setting [3]) and with HCV gt 1b replicon (setting [4]) were 2 nM and 10 nM, respectively. This compound also had a concentration at 4 h in data set [2] of 41 µM. Also, in data set [2], the “Rat PK 5 mpk AUC” value amounted to 1.35.

For the compound `CC1(S(=O)(=O)NC(=O)[C@@]23C[C@H]2/C=C\CCCCC[C@@H]2NC(=O)O[C@]4(C)C[C@H]4CCCCCc4nc5ccccc5nc4O[C@@H]4C[C@@H](C(=O)N3)N(C4)C2=O)CC1` [Example 11, (3R,20R,22R,26S,32Z,34S,36R,39S)-22-Methyl-N-[(1-methylcyclopropyl)sulfonyl]-24,38,40-trioxo-4,23-dioxa-1,6,13,25,37-pentaazaheptacyclo[24.13.1.1^3,39.0^5,14.0^7,12.0^20,22.0^34,36]hentetraconta-5,7,9,11,13,32-hexaene-36-carboxamide], the Ki at NS3/4A protease gt 1b turned out to be 0.02 nM; in data set [1] it was 0.5 nM; at NS3/4A protease gt 3a, 0.37 nM. Also, the EC50 (as a rule, the concentration giving half of the maximal effect) in the data set with HCV gt 1b replicon (setting [3]) was found to be 1 nM; with HCV gt 1b replicon (setting [4]) it was 5 nM. For the same compound, in data set [2], the concentration at 4 h amounted to 4 µM. Moreover, in data set [2], the “Rat PK 5 mpk AUC” value amounted to 0.07.

Regarding `O=C1N[C@H]2CCCCC/C=C\[C@@H]3C[C@@]3(C(=O)NS(=O)(=O)C3CC3)NC(=O)[C@@H]3C[C@H](CN3C2=O)Oc2nc3ccccc3nc2CCCCC[C@@H]2C[C@H]2O1` [Example 8, (3R,20R,22R,26S,32Z,34S,36R,39S)—N-(Cyclopropylsulfonyl)-24,38,40-trioxo-4,23-dioxa-1,6,13,25,37-pentaazaheptacyclo[24.13.1.1^3,39.0^5,14.0^7,12.0^20,22.0^34,36]hentetraconta-5,7,9,11,13,32-hexaene-36-carboxamide], the inhibition constant (Ki) at NS3/4A protease gt 1b was 0.02 nM; in data set [1] it was 0.9 nM; at NS3/4A protease gt 3a it was 0.49 nM. Moreover, the values for the half-maximal effective concentration (EC50) with HCV gt 1b replicon (setting [3]) and in the data set with HCV gt 1b replicon (setting [4]) were 1 nM and 13 nM, respectively. Also, the concentration at 4 h in data set [2] was 7 µM. Further, the “Rat PK 5 mpk AUC” value in data set [2] is 0.06.

`COc1ccc2nc3c(nc2c1)O[C@@H]1C[C@H]2C(=O)N[C@]4(C(=O)NS(=O)(=O)C5(C)CC5)C[C@H]4/C=C\CCCCC[C@H](NC(=O)O[C@@H]4C[C@H]4CCCCC3)C(=O)N2C1` [Example 4, (3R,20R,22R,26S,32Z,34S,36R,39S)-9-Methoxy-N-[(1-methylcyclopropyl)sulfonyl]-24,38,40-trioxo-4,23-dioxa-1,6,13,25,37-pentaazaheptacyclo[24.13.1.1^3,39.0^5,14.0^7,12.0^20,22.0^34,36]hentetraconta-5,7,9,11,13,32-hexaene-36-carboxamide]: the figures for the Ki (on NS3/4A protease gt 1b; in data set [1]; at NS3/4A protease gt 3a) were 0.04 nM, 0.6 nM and 0.27 nM, respectively. The EC50 in the data set with HCV gt 1b replicon (setting [3]) is 2 nM; in the data set on HCV gt 1b replicon (setting [4]), 4 nM. In data set [2], the concentration at 4 h was found to be 19 µM. For the same compound, in data set [2], the “Rat PK 5 mpk AUC” value is recorded as 0.1.

Source of the values: patent publication US8828930B2, “Hepatitis C virus NS3 protease inhibitors” (Merck Sharp & Dohme Corp., priority 2009, dated 2014).
